Assay results: patent US7625841B2, “Substituted thiene-3-ylsulphonylamino(thio)carbonyltriazolin(ethi)ones” (Bayer CropScience AG, priority 2001, dated 2009)

How the values were obtained:
Format in all cases: in vivo
[1] = system: crop plants, such as, for example, maize, soyabean and wheat; assay: Pre-emergence test, summary for crop plants
Description: (§1) • Solvent: 5 parts by weight of acetone • Emulsifier: 1 part by weight of alkylaryl polyglycol ether
(§2) To produce a suitable preparation of active compound, 1 part by weight of active compound is mixed with the stated amount of solvent, the stated amount of emulsifier is added and the concetrate is diluted with water to the desired concentration.
(§3) Seeds of the test plants are sown in normal soil. After 24 hours, the soil is sprayed with the preparation of active compound such that the particular amount of active compound desired is applied per unit area. The concentration of active compound in the spray liquor is chosen such that the particular amount of active compound desired is applied in 1000 litres of water per hectare.
(§4) After three weeks, the degree of damage to the plants is rated in % damage in comparison to the development of the untreated control. The figures denote: • 0%=no effect (like untreated control) • 100%=total destruction

[2] = system: crop plants such as, for example, maize, oilseed rape and wheat; assay: Post-emergence test, summary for crop plants
Description: as §1
(§5) To produce a suitable preparation of active compound, 1 part by weight of active compound is mixed with the stated amount of solvent, the stated amount of emulsifier is added and the concentrate is diluted with water to the desired concentration.
(§6) Test plants of a height of 5-15 cm are sprayed with the preparation of active compound such that the particular amounts of active compound desired are applied per unit area. The concentration of the spray liquor is chosen such that the particular amounts of active compound desired are applied in 1000 l of water/ha.
(§7) After three weeks, the degree of damage to the plants is rated in % damage in comparison to the development of the untreated control.
(§8) The figures denote: • 0%=no effect (like untreated control) • 100%=total destruction

Digitaria = assay: Post-emergence test/greenhouse; conditions: greenhouse, application rate 15 gai/ha, rated after three weeks, 0%=no effect, 100%=total destruction
Description: as §1, §5, §6, §7, §8

Bromus [3] = assay: Post-emergence test/greenhouse; conditions: greenhouse, application rate 15 gai/ha, rated after three weeks, 0%=no effect, 100%=total destruction
Description: as §1, §5, §6, §7, §8

Alopecurus [4] = assay: Post-emergence test/greenhouse; conditions: greenhouse, application rate 15 gai/ha, rated after three weeks, 0%=no effect, 100%=total destruction
Description: as §1, §5, §6, §7, §8

Lolium [5] = assay: Post-emergence test/greenhouse; conditions: greenhouse, application rate 15 gai/ha, rated after three weeks, 0%=no effect, 100%=total destruction
Description: as §1, §5, §6, §7, §8

maize [6] = assay: Post-emergence test/greenhouse; conditions: greenhouse, application rate 15 gai/ha, rated after three weeks, 0%=no effect, 100%=total destruction
Description: as §1, §5, §6, §7, §8

Avena fatua = assay: Post-emergence test/greenhouse; conditions: greenhouse, application rate 15 gai/ha, rated after three weeks, 0%=no effect, 100%=total destruction
Description: as §1, §5, §6, §7, §8

Echinochloa = assay: Post-emergence test/greenhouse; conditions: greenhouse, application rate 15 gai/ha, rated after three weeks, 0%=no effect, 100%=total destruction
Description: as §1, §5, §6, §7, §8

Setaria [7] = assay: Post-emergence test/greenhouse; conditions: greenhouse, application rate 15 gai/ha, rated after three weeks, 0%=no effect, 100%=total destruction
Description: as §1, §5, §6, §7, §8

weeds [8] = assay: Post-emergence test, summary for weeds
Description: as §1, §5, §6, §7, §8

weeds [9] = assay: Pre-emergence test, summary for weeds
Description: as §1, §2, §3, §4

Alopecurus [10] = assay: Pre-emergence test/greenhouse; conditions: greenhouse, application rate 15 gai/ha, rated after three weeks, 0%=no effect, 100%=total destruction
Description: as §1, §2, §3, §4

Amaranthus = assay: Pre-emergence test/greenhouse; conditions: greenhouse, application rate 15 gai/ha, rated after three weeks, 0%=no effect, 100%=total destruction
Description: as §1, §2, §3, §4

maize [11] = assay: Pre-emergence test/greenhouse; conditions: greenhouse, application rate 15 gai/ha, rated after three weeks, 0%=no effect, 100%=total destruction
Description: as §1, §2, §3, §4

soybeans = assay: Pre-emergence test/greenhouse; conditions: greenhouse, application rate 15 gai/ha, rated after three weeks, 0%=no effect, 100%=total destruction
Description: as §1, §2, §3, §4

wheat [12] = assay: Pre-emergence test/greenhouse; conditions: greenhouse, application rate 15 gai/ha, rated after three weeks, 0%=no effect, 100%=total destruction
Description: as §1, §2, §3, §4

Stellaria = assay: Pre-emergence test/greenhouse; conditions: greenhouse, application rate 15 gai/ha, rated after three weeks, 0%=no effect, 100%=total destruction
Description: as §1, §2, §3, §4

Matricaria = assay: Pre-emergence test/greenhouse; conditions: greenhouse, application rate 15 gai/ha, rated after three weeks, 0%=no effect, 100%=total destruction
Description: as §1, §2, §3, §4

Setaria [13] = assay: Pre-emergence test/greenhouse; conditions: greenhouse, application rate 15 gai/ha, rated after three weeks, 0%=no effect, 100%=total destruction
Description: as §1, §2, §3, §4

Viola = assay: Post-emergence test/greenhouse; conditions: greenhouse, application rate 15 gai/ha, rated after three weeks, 0%=no effect, 100%=total destruction
Description: as §1, §5, §6, §7, §8

wheat [14] = assay: Post-emergence test/greenhouse; conditions: greenhouse, application rate 15 gai/ha, rated after three weeks, 0%=no effect, 100%=total destruction
Description: as §1, §5, §6, §7, §8

Lolium [15] = assay: Pre-emergence test/greenhouse; conditions: greenhouse, application rate 15 gai/ha, rated after three weeks, 0%=no effect, 100%=total destruction
Description: as §1, §2, §3, §4

Solanum = assay: Pre-emergence test/greenhouse; conditions: greenhouse, application rate 15 gai/ha, rated after three weeks, 0%=no effect, 100%=total destruction
Description: as §1, §2, §3, §4

Bromus [16] = assay: Pre-emergence test/greenhouse; conditions: greenhouse, application rate 15 gai/ha, rated after three weeks, 0%=no effect, 100%=total destruction
Description: as §1, §2, §3, §4

Polygonum [17] = assay: Pre-emergence test/greenhouse; conditions: greenhouse, application rate 15 gai/ha, rated after three weeks, 0%=no effect, 100%=total destruction
Description: as §1, §2, §3, §4

Xanthium [18] = assay: Post-emergence test/greenhouse; conditions: greenhouse, application rate 15 gai/ha, rated after three weeks, 0%=no effect, 100%=total destruction
Description: as §1, §5, §6, §7, §8

Polygonum [19] = assay: Post-emergence test/greenhouse; conditions: greenhouse, application rate 15 gai/ha, rated after three weeks, 0%=no effect, 100%=total destruction
Description: as §1, §5, §6, §7, §8

Datura = assay: Post-emergence test/greenhouse; conditions: greenhouse, application rate 15 gai/ha, rated after three weeks, 0%=no effect, 100%=total destruction
Description: as §1, §5, §6, §7, §8

Xanthium [20] = assay: Pre-emergence test/greenhouse; conditions: greenhouse, application rate 15 gai/ha, rated after three weeks, 0%=no effect, 100%=total destruction
Description: as §1, §2, §3, §4

SMILES	tolerance by crop plants [1]	compatibility with crop plants compared with the known compounds (A) and (B) [2]	degree of damage to the plants, Bromus (Bromus [3])	degree of damage to the plants, Alopecurus (Alopecurus [4])	degree of damage to the plants, Lolium (Lolium [5])	degree of damage to the plants, maize (maize [6])	degree of damage to the plants, Avena fatua (Avena fatua)	degree of damage to the plants, Echinochloa (Echinochloa)	activity against weeds compared with the known compounds (A) and (B) (weeds [8])	activity against weeds compared with the known compounds (A) to (G) (weeds [9])	degree of damage to the plants, Alopecurus (Alopecurus [10])	degree of damage to the plants, Amaranthus (Amaranthus)	degree of damage to the plants, maize (maize [11])	degree of damage to the plants, wheat (wheat [12])	degree of damage to the plants, Stellaria (Stellaria)	degree of damage to the plants, Matricaria (Matricaria)	degree of damage to the plants, wheat (wheat [14])	degree of damage to the plants, Lolium (Lolium [15])	degree of damage to the plants, Solanum (Solanum)	degree of damage to the plants, Bromus (Bromus [16])	further results
COCc1nn(C(=O)NS(=O)(=O)c2c(C(=O)OC)csc2C)c(=O)n1C [Example 18]	tolerated well by crop plants	substantially better compatibility with crop plants	80%	95%	95%	0%	95%	95%	considerably stronger activity against weeds	considerably stronger activity against weeds	95%	95%	0%	0%	95%	100%	–	–	–	–	degree of damage to the plants, Digitaria (Digitaria): 95%; degree of damage to the plants, Setaria (Setaria [7]): 100%; degree of damage to the plants, soybeans (soybeans): 0%; degree of damage to the plants, Setaria (Setaria [13]): 95%
CCSc1nn(C(=O)NS(=O)(=O)c2c(C(=O)OC)csc2C)c(=O)n1C [Example 20]	tolerated well by crop plants	substantially better compatibility with crop plants	80%	90%	–	–	–	100%	considerably stronger activity against weeds	considerably stronger activity against weeds	90%	95%	0%	0%	100%	100%	0%	95%	100%	–	degree of damage to the plants, Viola (Viola): 100%; degree of damage to the plants, soybeans (soybeans): 0%
COC(=O)c1csc(C)c1S(=O)(=O)NC(=O)n1nc(C2CC2)n(C)c1=O [Example 22]	tolerated well by crop plants	substantially better compatibility with crop plants	95%	99%	–	0%	80%	–	considerably stronger activity against weeds	considerably stronger activity against weeds	95%	–	0%	0%	100%	–	0%	95%	100%	100%	degree of damage to the plants, Digitaria (Digitaria): 95%; degree of damage to the plants, Setaria (Setaria [7]): 90%; degree of damage to the plants, Polygonum (Polygonum [17]): 95%
CCOC(=O)c1csc(C)c1S(=O)(=O)NC(=O)n1nc(OCC)n(C)c1=O [Example 55]	tolerated well by crop plants	substantially better compatibility with crop plants	90%	90%	90%	0%	–	90%	considerably stronger activity against weeds	considerably stronger activity against weeds	95%	–	0%	0%	100%	–	–	90%	100%	95%	degree of damage to the plants, Xanthium (Xanthium [18]): 95%; degree of damage to the plants, Polygonum (Polygonum [19]): 90%; degree of damage to the plants, Datura (Datura): 95%; degree of damage to the plants, Xanthium (Xanthium [20]): 95%; degree of damage to the plants, Polygonum (Polygonum [17]): 95%
CCOC(=O)c1csc(C)c1S(=O)(=O)NC(=O)n1nc(OC)n(C2CC2)c1=O [Example 56]	tolerated well by crop plants	substantially better compatibility with crop plants	90%	–	90%	–	90%	95%	considerably stronger activity against weeds	considerably stronger activity against weeds	–	100%	0%	0%	100%	100%	0%	95%	100%	95%	degree of damage to the plants, Viola (Viola): 95%; degree of damage to the plants, Xanthium (Xanthium [18]): 95%; degree of damage to the plants, Datura (Datura): 90%; degree of damage to the plants, Xanthium (Xanthium [20]): 95%
